Experiments:
[1] = Inhibition of 12-O-tetradecanoylphorbol-13-acetate-induced EBV-early antigen activation in human Raji cells assessed per 32 pmol TPA by immunofluorescence technique; assay type: cell-based, human gammaherpesvirus 4
Raji [2] = assay: Inhibition of 12-O-tetradecanoylphorbol-13-acetate-induced EBV-early antigen activation in human Raji cells assessed as EA induction at 500 molar ratio relative to 12-O-tetradecanoylphorbol-13-acetate by immunofluorescence technique; assay type: cell-based; parameters: scale not given: the % may be the effect or the level left; conditions: human gammaherpesvirus 4
Raji [3] = assay: Inhibition of 12-O-tetradecanoylphorbol-13-acetate-induced EBV-early antigen activation in human Raji cells assessed as EA induction at 10 molar ratio relative to 12-O-tetradecanoylphorbol-13-acetate by immunofluorescence technique; assay type: cell-based; parameters: scale not given: the % may be the effect or the level left; conditions: human gammaherpesvirus 4
Raji [4] = assay: Inhibition of 12-O-tetradecanoylphorbol-13-acetate-induced EBV-early antigen activation in human Raji cells assessed as EA induction at 100 molar ratio relative to 12-O-tetradecanoylphorbol-13-acetate by immunofluorescence technique; assay type: cell-based; parameters: scale not given: the % may be the effect or the level left; conditions: human gammaherpesvirus 4
Raji [5] = assay: Inhibition of 12-O-tetradecanoylphorbol-13-acetate-induced EBV-early antigen activation in human Raji cells assessed as EA induction at 1000 molar ratio relative to 12-O-tetradecanoylphorbol-13-acetate by immunofluorescence technique; assay type: cell-based; parameters: scale not given: the % may be the effect or the level left; conditions: human gammaherpesvirus 4
[6] = Cytotoxicity against human Raji cells assessed as cell viability at 1000 molar ratio by trypan blue staining method; assay type: cell-based; conditions: read-out: Activity

IC50 [1] | Structure (SMILES) | Activity (Raji [2]) | Activity (Raji [3]) | Activity (Raji [4]) | Activity (Raji [5]) | viability at 1000 molar ratio [6]
290 molar ratio | COC(=O)CC[C@@H](C)[C@H]1CC(=O)[C@@]2(C)C3=C(C(=O)[C@@H](OC(C)=O)[C@]12C)[C@@]1(C)CCC(=O)C(C)(C)[C@@H]1CC3=O [METHYL LUCIDENATE D2] | 29.3% | 98% | 76.9% | 2.2% | 70%
285 molar ratio | COC(=O)CC[C@@H](C)[C@H]1CC(=O)[C@@]2(C)C3=C(C(=O)C[C@]12C)[C@@]1(C)CCC(=O)C(C)(C)[C@@H]1CC3=O [METHYL LUCIDENATE F] | 26.8% | 98.3% | 75.4% | 2.1% | 70%
280 molar ratio | CC(=O)O[C@@H]1C(=O)C2=C(C(=O)C[C@H]3C(C)(C)[C@@H](O)CC[C@]23C)[C@]2(C)C(=O)C[C@H]([C@H](C)CCC(=O)O)[C@@]12C [LUDICENIC ACID E2] | 23.5% | 94% | 73.1% | -0% | 70%
289 molar ratio | COC(=O)C(C)CC(=O)C[C@@H](C)[C@H]1CC(=O)[C@@]2(C)C3=C(C(=O)[C@@H](OC(C)=O)[C@]12C)[C@@]1(C)CCC(=O)C(C)(C)[C@@H]1CC3=O (some centres undefined) [METHYL GANODERATE F] | 26.4% | 100% | 75.3% | 2.3% | 70%
288 molar ratio | COC(=O)CC[C@@H](C)[C@H]1CC(=O)[C@@]2(C)C3=C(C(=O)[C@@H](OC(C)=O)[C@]12C)[C@@]1(C)CC[C@H](O)C(C)(C)[C@@H]1CC3=O [METHYL LUCIDENATE E2] | 27.9% | 95.4% | 76% | 1.2% | 70%
287 molar ratio | CC(=O)O[C@@H]1C(=O)C2=C(C(=O)C[C@H]3C(C)(C)C(=O)CC[C@]23C)[C@]2(C)C(=O)C[C@H]([C@H](C)CCC(=O)O)[C@@]12C [LUCIDENIC ACID D2] | 26.1% | 96.1% | 73.8% | 2% | 70%

Second part, the compound before the results:

Structure (SMILES) | IC50 [1] | Activity (Raji [2]) | Activity (Raji [3]) | Activity (Raji [4]) | Activity (Raji [5]) | viability at 1000 molar ratio [6]
COC(=O)CC[C@@H](C)[C@H]1CC(=O)[C@@]2(C)C3=C(C(=O)[C@@H](O)[C@]12C)[C@@]1(C)CC[C@H](O)C(C)(C)[C@@H]1CC3=O [METHYL LUCIDENATE L] | 275 molar ratio | 21.7% | 92.6% | 71.9% | -0% | 70%
CC(=O)O[C@@H]1C(=O)C2=C(C(=O)C[C@H]3C(C)(C)C(=O)CC[C@]23C)[C@]2(C)C(=O)C[C@H]([C@H](C)CC(=O)CC(C)C(=O)O)[C@@]12C (some centres undefined) [GANODERIC ACID F] | 293 molar ratio | 28.5% | 98.7% | 77.1% | 3.6% | 70%
COC(=O)CC[C@@H](C)[C@H]1CC(=O)[C@@]2(C)C3=C(C(=O)[C@@H](OC(C)=O)[C@]12C)[C@@]1(C)CC[C@H](O)C(C)(C)[C@@H]1C[C@@H]3O [METHYL LUCIDENATE P] | 293 molar ratio | 28.9% | 97.6% | 77.4% | 2.3% | 70%
COC(=O)CC[C@@H](C)[C@H]1C[C@H](O)[C@@]2(C)C3=C(C(=O)C[C@]12C)[C@@]1(C)CCC(=O)C(C)(C)[C@@H]1C[C@@H]3O [METHYL LUCIDENATE Q] | 283 molar ratio | 24.6% | 95.4% | 73.7% | -0% | 70%
CC(=O)OC1C[C@H]([C@H](C)CC/C=C(/C)C(=O)O)[C@@]2(C)CC=C3C(=CC[C@H]4C(C)(C)C(=O)CC[C@]34C)[C@]12C (some centres undefined) | 281 molar ratio | 26.4% | 95.3% | 74.6% | -0% | 70%
COC(=O)CC[C@@H](C)[C@H]1CC(=O)[C@@]2(C)C3=C(C(=O)C[C@]12C)[C@@]1(C)CCC(=O)C(C)(C)[C@@H]1C[C@@H]3O [METHYL LUCIDENATE A] | 287 molar ratio | 24.9% | 95% | 75.1% | -0% | 70%
C[C@H](CCC(=O)O)[C@H]1CC(=O)[C@@]2(C)C3=C(C(=O)[C@@H](O)[C@]12C)[C@@]1(C)CC[C@H](O)C(C)(C)[C@@H]1C[C@@H]3O [LUCIDENIC ACID C] | 284 molar ratio | 24% | 93.1% | 72.6% | -0% | 70%
C[C@H](CCC(=O)O)[C@H]1CC(=O)[C@@]2(C)C3=C(C(=O)C[C@]12C)[C@@]1(C)CCC(=O)C(C)(C)[C@@H]1C[C@@H]3O [LUCIDENIC ACID A] | 280 molar ratio | 22.7% | 96.1% | 73% | -0% | 70%
CC(=O)O[C@@H]1C(=O)C2=C([C@@H](O)C[C@H]3C(C)(C)[C@@H](O)CC[C@]23C)[C@]2(C)C(=O)C[C@H]([C@H](C)CCC(=O)O)[C@@]12C [LUCIDENIC ACID P] | 286 molar ratio | 27.5% | 96.6% | 74.2% | -0% | 70%
C[C@H](CC(=O)C[C@@H](C)[C@H]1CC(=O)[C@@]2(C)C3=C(C(=O)C[C@]12C)[C@@]1(C)CCC(=O)C(C)(C)[C@@H]1CC3=O)C(=O)O [GANODERIC ACID E] | 281 molar ratio | 28.3% | 97.4% | 79% | -0% | 70%
CC1=C(/C=C/C(C)=C/C=C/C(C)=C/C=C/C=C(C)/C=C/C=C(C)/C=C/C2=C(C)CCCC2(C)C)C(C)(C)CCC1 [BETA CAROTENE] | 400 molar ratio | – | 100% | – | 8.6% | –

Source: ChEMBL document CHEMBL1147265, “Lucidenic acids P and Q, methyl lucidenate P, and other triterpenoids from the fungus Ganoderma lucidum and their inhibitory effects on Epstein-Barr virus activation” (J Nat Prod, 2003)
